Measurements reported in article PMC4336331, “Novel Receptor-Derived Cyclopeptides to Treat Heart Failure Caused by Anti-β1-Adrenoceptor Antibodies in a Human-Analogous Rat Model” (PLoS ONE, 2015).
Peptide text beside a SMILES is read from it.

Columns and labels:
[1] = tested on: anti-β1EC2-induced heart failure (β1EC2/GST-FP-immunised rats); assay: Relative organ wet weights and body weight, prevention-study; details: month 16, mean ±SEM
Protocol: In brief, n = 76 two months old Lewis/CrlBR rats were either s.c. immunised with 50 μg β1EC2/GST-FP, or n = 38 rats were control-injected with 0.9% NaCl (t = 0). To maintain high anti-β1EC2-titers, all immunised rats were boosted with β1EC2/GST-FP (or 0.9% NaCl) every month over 20 months as previously described. Application of the different linear or cyclic β1-AR peptides (corresponding to the primary AA-sequence of either the first (β1EC1) or the 2nd extra-cellular β1-AR loop (β1EC2)) or the β1-receptor blocker bisoprolol was initiated either 6 weeks after the 1st immunisation (i.e. 15 days after the 1st boost, prevention-study), or 8.5 months after the 1st immunisation (therapy-study).
After the hearts all other relevant inner organs (e.g., lung, liver, spleen, kidneys, brain, and eyes) were removed, rinsed with ice-cold PBS, weighed, sectioned, and fixed for further histologic analysis.

β1-AR mRNA = assay: qRT-PCR of cardiac β1-AR mRNA, therapy-study; format: in vivo, Lewis/CrlBR rats; details: qRT-PCR normalised to GAPDH (Fig. 4C)
[2] = tested on: anti-β1EC2-induced heart failure (β1EC2/GST-FP-immunised rats); assay: Heart histology (fibrotic scars, TUNEL, mast cells), therapy-study; format: in vivo, Lewis/CrlBR rats; details: for number of myocardial fibrotic scars, in words: midventricular 2μm-sections (Fig. 3A and B); for TUNEL-positive apopotic cells, in words: midventricular 2μm-sections (Fig. 3C); for increase in cardiac mast cells, in words: toluidine blue, mono- or co-treatment (Fig. 3E)
Description: Fig 3 Histology of rat hearts (therapy-study). (A) Representative H&E-stained 2μm cross-sections of hearts (from the left to the right) from a control rat, an immunised untreated rat, a bisoprolol- and a β1EC2-CP mono-treated rat, and a β1EC2-CP/bisoprolol co-treated rat. (B) Quantification of fibrotic scars in midventricular 2μm-sections (mvhs, mid-ventricular heart-section). Columns ± error bars represent the mean number of fibrotic scars ±SEM per 3 heart sections in the indicated groups. (C) TUNEL-assay with 2μm-mvhs. Columns ± error bars represent mean numbers ±SEM of apoptotic cells (kind of cells not specified) /3 mvhs. (D) qRT-PCR of apical cardiac tissues. Columns ± error bars represent the expression of the indicated pro-fibrotic markers ±SEM in the indicated treatment-groups normalised to controls. (E) Mast cells in 2μm paraffin-mvhs from the indicated treatment-groups; columns ± error bars represent the mean numbers ±SEM of mast cells/mm^2 cardiac tissue. For all parameters shown, differences between the treatment-groups were assessed by […] one way ANOVA and Dunnett`s post-hoc test; *p<0.05; **p<0.001.

cardiac β1-ARs = assay: Radioligand binding of cardiac membranes (125I-CYP); format: in vivo, Lewis/CrlBR rats; details: 125I-cyanopindolol binding to cardiac membranes, CGP20712A competition (Fig. 4A and B)
Protocol: Membranes from apical cardiac tissues from rats of each study-group were prepared as previously described. To determine total β-AR density (Bmax), 35μg membrane protein were incubated (1.5 h, 25°C) in binding buffer with 200pM of the non-selective β-AR antagonist ^125I-cyanopindolol (^125I-CYP; Perkin Elmer Life and Analytical Sciences, Billerica, MA). Non-specific binding was determined with 5μM unlabeled L-propranolol. The proportion of β1- and β2-AR subtypes was estimated from biphasic competition-curves with 10^-10 to 10^-2 M of the unlabeled β1-selective antagonist CGP20712A (Sigma). The reaction was stopped by rapid filtration (Whatman GF/C filters) and washing with ice-cold buffer. Filter-bound radioactivity was measured by γ-counting. Estimates of maximal binding (Bmax) and the proportion of β1- and β2-AR-subtypes were calculated with GraphPad Prism 5.00 (San Diego, CA).
Fig 4 Cardiac adrenergic system and molecular markers. […] Columns ± error bars represent the level of expression of the indicated markers ±SEM in cardiac tissues from the indicated treatment-groups compared to values from 0.9% NaCl-injected rats (controls, set at 100%), as determined by qRT-PCR normalised to GAPDH (one way ANOVA and Dunnett`s post-hoc test; *p<0.05; **p<0.001).

[3] = Plasma half-life in vivo of 123I-(tyrosine)-labeled peptides; details: 123I-(tyrosine)-labeled peptide, 1.4 to 1.8 MBq/animal injected; central venous blood samples gamma-counted 2, 4, 6, 8, 10, 20, 30, 60 min after injection; difference n.s.
[4] = immunised anti-β1EC2-positive rats, from 6 weeks after 1st immunisation EC2-CP 1.0 mg/kg i.v. every 4 weeks or bisoprolol 15 mg/kg/day orally over 12 months
[5] = non-immunised 0.9% NaCl-injected rats, EC2-CP 1.0 mg/kg i.v. every 4 weeks or bisoprolol 15 mg/kg/day orally over 12 months

Row | SMILES | Heart, relative (wet) weight [1, 4] | Kidney L, relative (wet) weight [1, 4] | Kidney R, relative (wet) weight [1, 4] | Liver, relative (wet) weight [1, 4] | Lung, relative (wet) weight [1, 4] | Spleen, relative (wet) weight [1, 4] | Weight (body weight) [1, 4] | Heart, relative (wet) weight [1, 5] | Kidney L, relative (wet) weight [1, 5] | Kidney R, relative (wet) weight [1, 5] | Liver, relative (wet) weight [1, 5] | Lung, relative (wet) weight [1, 5] | Spleen, relative (wet) weight [1, 5] | Weight (body weight) [1, 5] | cardiac β1-AR mRNA-levels, in words (β1-AR mRNA) | number of myocardial fibrotic scars, in words [2] | TUNEL-positive apopotic cells, in words [2] | increase in cardiac mast cells, in words [2] | cardiac β1-AR density (downregulation), in words (cardiac β1-ARs) | plasma-half life in vivo (t ½) [3]
1 | CC(C)NCC(O)COc1ccc(COCCOC(C)C)cc1 (stereo not shown) [bisoprolol, reference compound] | 2.55 ± 0.06 mg/g | 2.63 ± 0.04 mg/g | 2.73 ± 0.07 mg/g | 22.63 ± 0.46 mg/g | 2.74 ± 0.07 mg/g | 1.74 ± 0.05 mg/g | 533 ± 27 g | 2.50 ± 0.06 mg/g | 2.79 ± 0.05 mg/g | 2.90 ± 0.07 mg/g | 22.33 ± 0.78 mg/g | 2.66 ± 0.22 mg/g | 1.79 ± 0.05 mg/g | 546 ± 8 g | returned to normal levels | not seen | not seen | reversed to control levels | small increase | –
2 | CC(C)[C@@H]1NC(=O)[C@H](Cc2ccccc2)NC(=O)[C@H](CC(=O)O)NC(=O)[C@H](CS)NC(=O)[C@H](CS)NC(=O)[C@H](CCCCN)NC(=O)[C@@H]2CCCN2C(=O)[C@H](CC(=O)O)NC(=O)[C@H](CC(N)=O)NC(=O)[C@H](Cc2ccc(O)cc2)NC(=O)[C@H](CS)NC(=O)[C@H](CCCNC(=N)N)NC(=O)[C@H](CCCNC(=N)N)NC(=O)[C@H](C)NC(=O)[C@H](CCC(=O)O)NC(=O)[C@H](CC(=O)O)NC(=O)[C@H](CO)NC(=O)[C@H](CCC(=O)O)NC(=O)[C@H](C)NC(=O)[C@H](CCCNC(=N)N)NC(=O)[C@H](C)NC(=O)[C@H](CCC(N)=O)NC(=O)CNC(=O)[C@H](CCCNC(=N)N)NC(=O)[C@H](CC(N)=O)NC(=O)[C@H]([C@@H](C)O)NC1=O [β1EC2-CP] (cyclo(AESDEARRCYNDPKCCDFVTNRGQAR)) | 2.46 ± 0.05 mg/g | 2.71 ± 0.08 mg/g | 2.79 ± 0.06 mg/g | 23.59 ± 0.46 mg/g | 2.74 ± 0.14 mg/g | 1.48 ± 0.05 mg/g | 543 ± 24 g | 2.50 ± 0.06 mg/g | 2.62 ± 0.08 mg/g | 2.79 ± 0.01 mg/g | 22.51 ± 0.20 mg/g | 2.77 ± 0.10 mg/g | 1.58 ± 0.15 mg/g | 553 ± 11 g | returned to normal levels | returned to normal levels | returned to normal levels | reversed to control levels | largely prevented | 8.1 ± 2.8 min
3 | CC(C)[C@H](NC(=O)[C@H](Cc1ccccc1)NC(=O)[C@H](CC(=O)O)NC(=O)[C@H](CS)NC(=O)[C@H](CS)NC(=O)[C@H](CCCCN)NC(=O)[C@@H]1CCCN1C(=O)[C@H](CC(=O)O)NC(=O)[C@H](CC(N)=O)NC(=O)[C@H](Cc1ccc(O)cc1)NC(=O)[C@H](CS)NC(=O)[C@H](CCCNC(=N)N)NC(=O)[C@H](CCCNC(=N)N)NC(=O)[C@H](C)NC(=O)[C@H](CCC(=O)O)NC(=O)[C@H](CC(=O)O)NC(=O)[C@H](CO)NC(=O)[C@H](CCC(=O)O)NC(=O)[C@H](C)NC(=O)[C@H](CCCNC(=N)N)NC(=O)[C@H](C)N)C(=O)N[C@H](C(=O)N[C@@H](CC(N)=O)C(=O)N[C@@H](CCCNC(=N)N)C(=O)NCC(N)=O)[C@@H](C)O [β1EC2-Lin] (H-ARAESDEARRCYNDPKCCDFVTNRG-NH2; N-terminus and C-terminus assumed) | – | – | – | – | – | – | – | – | – | – | – | – | – | – | – | – | – | – | – | 3.9 ± 2.2 min
